# Experimental data as given in PubChem BioAssay (NCI).
#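 GI50 is the concentration that inhibits growth by half. TGI denotes the concentration required for complete inhibition of growth.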
# What was measured:
# Experiment in all cases: NCI anticancer screen, dose series, 384-well format
# A498 renal = system: A498 renal
# HCC-2998 colon = system: HCC-2998 colon
# MALME-3M melanoma = system: MALME-3M melanoma
# MDA-MB-231 breast = system: MDA-MB-231 breast
# RXF 393 renal = system: RXF 393 renal
# SF-539 CNS = system: SF-539 CNS
# SK-MEL-5 melanoma = system: SK-MEL-5 melanoma
# NCI-H322M lung = system: NCI-H322M lung
# HCT-15 colon = system: HCT-15 colon
# A549 NSCLC = system: A549 NSCLC
# NCI/ADR-RES ovarian = system: NCI/ADR-RES ovarian
# PC-3 prostate = system: PC-3 prostate
# SW-620 colon = system: SW-620 colon
# U251 glioblastoma = system: U251 glioblastoma
# SNB-75 CNS = system: SNB-75 CNS
# SF-268 CNS = system: SF-268 CNS
# RPMI-8226 leukemia = system: RPMI-8226 leukemia
# UACC-257 melanoma = system: UACC-257 melanoma
# HS 578T breast = system: HS 578T breast
# NCI-H522 lung = system: NCI-H522 lung
# HCT-116 colon = system: HCT-116 colon
# EKVX NSCLC = system: EKVX NSCLC
# SK-MEL-28 melanoma = system: SK-MEL-28 melanoma
# HT29 colon = system: HT29 colon
# LOX IMVI melanoma = system: LOX IMVI melanoma
# CAKI-1 renal = system: CAKI-1 renal
# SK-OV-3 ovarian = system: SK-OV-3 ovarian
# KM12 colon = system: KM12 colon
# NCI-H460 NSCLC = system: NCI-H460 NSCLC
# MDA-MB-435 melanoma = system: MDA-MB-435 melanoma
# HL-60(TB) leukemia = system: HL-60(TB) leukemia
# BT-549 breast = system: BT-549 breast
# T-47D breast = system: T-47D breast
# OVCAR-3 ovarian = system: OVCAR-3 ovarian
# UO-31 renal = system: UO-31 renal
# HOP-92 NSCLC = system: HOP-92 NSCLC
# IGROV1 ovarian = system: IGROV1 ovarian
# MOLT-4 leukemia = system: MOLT-4 leukemia
# SN12C renal = system: SN12C renal
# NCI-H23 lung = system: NCI-H23 lung
# DU-145 prostate = system: DU-145 prostate
# UACC-62 melanoma = system: UACC-62 melanoma
# K-562 leukemia = system: K-562 leukemia
# TK-10 renal = system: TK-10 renal
# MDA-MB-468 breast = system: MDA-MB-468 breast
# M14 melanoma = system: M14 melanoma
# OVCAR-8 ovarian = system: OVCAR-8 ovarian
# SNB-19 CNS = system: SNB-19 CNS
# HOP-62 NSCLC = system: HOP-62 NSCLC
# OVCAR-5 ovarian = system: OVCAR-5 ovarian
# SF-295 CNS = system: SF-295 CNS
# ACHN renal = system: ACHN renal
# CCRF-CEM leukemia = system: CCRF-CEM leukemia
# MCF7 breast = system: MCF7 breast
# COLO 205 colon = system: COLO 205 colon
# OVCAR-4 ovarian = system: OVCAR-4 ovarian
# NCI-H226 lung = system: NCI-H226 lung
# 786-0 renal = system: 786-0 renal
compound,measurement,setting,value
Cc1cccc(-c2nn3c(c2-c2ccnc4ccc(C(N)=O)cc24)CCC3)n1,GI50,A498 renal,3.34 µM
same,TGI,A498 renal,12 µM
same,GI50,HCC-2998 colon,3.78 µM
same,TGI,HCC-2998 colon,13.2 µM
same,GI50,MALME-3M melanoma,5.57 µM
same,TGI,MALME-3M melanoma,16.4 µM
same,GI50,MDA-MB-231 breast,4.81 µM
same,TGI,MDA-MB-231 breast,16.6 µM
same,GI50,RXF 393 renal,2.02 µM
same,TGI,RXF 393 renal,4.6 µM
same,GI50,SF-539 CNS,2.44 µM
same,TGI,SF-539 CNS,5.39 µM
same,GI50,SK-MEL-5 melanoma,2.55 µM
same,TGI,SK-MEL-5 melanoma,6.56 µM
same,GI50,NCI-H322M lung,3.86 µM
same,TGI,NCI-H322M lung,16.6 µM
same,GI50,HCT-15 colon,2.97 µM
same,TGI,HCT-15 colon,10.6 µM
same,GI50,A549 NSCLC,3.93 µM
same,TGI,A549 NSCLC,14.3 µM
same,GI50,NCI/ADR-RES ovarian,2.17 µM
same,TGI,NCI/ADR-RES ovarian,4.48 µM
same,GI50,PC-3 prostate,3.64 µM
same,TGI,PC-3 prostate,11.8 µM
same,GI50,SW-620 colon,5.1 µM
same,TGI,SW-620 colon,15.6 µM
same,GI50,U251 glioblastoma,2.65 µM
same,TGI,U251 glioblastoma,8.58 µM
same,GI50,SNB-75 CNS,2.52 µM
same,TGI,SNB-75 CNS,11.3 µM
same,GI50,SF-268 CNS,3.05 µM
same,TGI,SF-268 CNS,9.5 µM
same,GI50,RPMI-8226 leukemia,1.74 µM
same,TGI,RPMI-8226 leukemia,3.13 µM
same,GI50,UACC-257 melanoma,6.22 µM
same,TGI,UACC-257 melanoma,19.7 µM
same,GI50,HS 578T breast,1.74 µM
same,TGI,HS 578T breast,3.65 µM
same,GI50,NCI-H522 lung,1.8 µM
same,TGI,NCI-H522 lung,4.1 µM
same,GI50,HCT-116 colon,3.65 µM
same,TGI,HCT-116 colon,12.3 µM
same,GI50,EKVX NSCLC,3.92 µM
same,TGI,EKVX NSCLC,12.8 µM
same,GI50,SK-MEL-28 melanoma,6.9 µM
same,TGI,SK-MEL-28 melanoma,19.7 µM
same,GI50,HT29 colon,2.37 µM
same,TGI,HT29 colon,6.01 µM
same,GI50,LOX IMVI melanoma,2.77 µM
same,TGI,LOX IMVI melanoma,7.47 µM
same,GI50,CAKI-1 renal,3.9 µM
same,TGI,CAKI-1 renal,14.1 µM
same,GI50,SK-OV-3 ovarian,3.17 µM
same,TGI,SK-OV-3 ovarian,10.4 µM
same,GI50,KM12 colon,2.47 µM
same,TGI,KM12 colon,6.04 µM
same,GI50,NCI-H460 NSCLC,2.37 µM
same,TGI,NCI-H460 NSCLC,5.92 µM
same,GI50,MDA-MB-435 melanoma,1.95 µM
same,TGI,MDA-MB-435 melanoma,3.83 µM
same,GI50,HL-60(TB) leukemia,2.08 µM
same,TGI,HL-60(TB) leukemia,3.57 µM
same,GI50,BT-549 breast,2.41 µM
same,TGI,BT-549 breast,5.7 µM
same,GI50,T-47D breast,3.64 µM
same,TGI,T-47D breast,16.8 µM
same,GI50,OVCAR-3 ovarian,2.15 µM
same,TGI,OVCAR-3 ovarian,3.96 µM
CN[C@@H](C)C(=O)N[C@H]1CN(C(=O)CC(C)C)CC[C@H]2CC[C@@H](C(=O)NC(c3ccccc3)c3ccccc3)N2C1=O,GI50,UO-31 renal,> 100 µM
same,TGI,UO-31 renal,> 100 µM
same,GI50,A498 renal,> 100 µM
same,TGI,A498 renal,> 100 µM
same,GI50,HCC-2998 colon,12.5 µM
same,TGI,HCC-2998 colon,> 100 µM
same,GI50,HOP-92 NSCLC,13.8 µM
same,TGI,HOP-92 NSCLC,50.7 µM
same,GI50,IGROV1 ovarian,> 100 µM
same,TGI,IGROV1 ovarian,> 100 µM
same,GI50,MOLT-4 leukemia,35.1 µM
same,TGI,MOLT-4 leukemia,> 100 µM
same,GI50,MALME-3M melanoma,0.542 µM
same,TGI,MALME-3M melanoma,11 µM
same,GI50,SN12C renal,> 100 µM
same,TGI,SN12C renal,> 100 µM
same,GI50,NCI-H23 lung,49 µM
same,TGI,NCI-H23 lung,> 100 µM
same,GI50,DU-145 prostate,> 100 µM
same,TGI,DU-145 prostate,> 100 µM
same,GI50,UACC-62 melanoma,> 100 µM
same,TGI,UACC-62 melanoma,> 100 µM
same,GI50,K-562 leukemia,56.6 µM
same,TGI,K-562 leukemia,> 100 µM
same,GI50,TK-10 renal,> 100 µM
same,TGI,TK-10 renal,> 100 µM
same,GI50,RXF 393 renal,0.823 µM
same,TGI,RXF 393 renal,20 µM
same,GI50,SF-539 CNS,> 100 µM
same,TGI,SF-539 CNS,> 100 µM
same,GI50,SK-MEL-5 melanoma,3.63 µM
same,TGI,SK-MEL-5 melanoma,21.8 µM
same,GI50,NCI-H322M lung,> 100 µM
same,TGI,NCI-H322M lung,> 100 µM
same,GI50,MDA-MB-468 breast,2.78 µM
same,TGI,MDA-MB-468 breast,72.1 µM
same,GI50,HCT-15 colon,> 100 µM
same,TGI,HCT-15 colon,> 100 µM
same,GI50,A549 NSCLC,> 100 µM
same,TGI,A549 NSCLC,> 100 µM
same,GI50,NCI/ADR-RES ovarian,> 100 µM
same,TGI,NCI/ADR-RES ovarian,> 100 µM
same,GI50,PC-3 prostate,> 100 µM
same,TGI,PC-3 prostate,> 100 µM
same,GI50,M14 melanoma,> 100 µM
same,TGI,M14 melanoma,> 100 µM
same,GI50,SW-620 colon,> 100 µM
same,TGI,SW-620 colon,> 100 µM
same,GI50,U251 glioblastoma,> 100 µM
same,TGI,U251 glioblastoma,> 100 µM
same,GI50,OVCAR-8 ovarian,68.8 µM
same,TGI,OVCAR-8 ovarian,> 100 µM
same,GI50,SNB-75 CNS,49.9 µM
same,TGI,SNB-75 CNS,> 100 µM
same,GI50,SF-268 CNS,> 100 µM
same,TGI,SF-268 CNS,> 100 µM
same,GI50,SNB-19 CNS,> 100 µM
same,TGI,SNB-19 CNS,> 100 µM
same,GI50,HOP-62 NSCLC,4.4 µM
same,TGI,HOP-62 NSCLC,> 100 µM
same,GI50,OVCAR-5 ovarian,> 100 µM
same,TGI,OVCAR-5 ovarian,> 100 µM
same,GI50,SF-295 CNS,> 100 µM
same,TGI,SF-295 CNS,> 100 µM
same,GI50,RPMI-8226 leukemia,24.4 µM
same,TGI,RPMI-8226 leukemia,> 100 µM
same,GI50,UACC-257 melanoma,24.7 µM
same,TGI,UACC-257 melanoma,55 µM
same,GI50,HS 578T breast,16.4 µM
same,TGI,HS 578T breast,> 100 µM
same,GI50,NCI-H522 lung,5.58 µM
same,TGI,NCI-H522 lung,> 100 µM
same,GI50,HCT-116 colon,> 100 µM
same,TGI,HCT-116 colon,> 100 µM
same,GI50,EKVX NSCLC,> 100 µM
same,TGI,EKVX NSCLC,> 100 µM
same,GI50,ACHN renal,> 100 µM
same,TGI,ACHN renal,> 100 µM
same,GI50,CCRF-CEM leukemia,15.8 µM
same,TGI,CCRF-CEM leukemia,> 100 µM
same,GI50,SK-MEL-28 melanoma,> 100 µM
same,TGI,SK-MEL-28 melanoma,> 100 µM
same,GI50,HT29 colon,39.8 µM
same,TGI,HT29 colon,> 100 µM
same,GI50,MCF7 breast,83.8 µM
same,TGI,MCF7 breast,> 100 µM
same,GI50,LOX IMVI melanoma,> 100 µM
same,TGI,LOX IMVI melanoma,> 100 µM
same,GI50,CAKI-1 renal,> 100 µM
same,TGI,CAKI-1 renal,> 100 µM
same,GI50,COLO 205 colon,> 100 µM
same,TGI,COLO 205 colon,> 100 µM
same,GI50,SK-OV-3 ovarian,0.357 µM
same,TGI,SK-OV-3 ovarian,9.16 µM
same,GI50,KM12 colon,> 100 µM
same,TGI,KM12 colon,> 100 µM
same,GI50,OVCAR-4 ovarian,0.167 µM
same,TGI,OVCAR-4 ovarian,1.05 µM
same,GI50,NCI-H226 lung,> 100 µM
same,TGI,NCI-H226 lung,> 100 µM
same,GI50,NCI-H460 NSCLC,> 100 µM
same,TGI,NCI-H460 NSCLC,> 100 µM
same,GI50,HL-60(TB) leukemia,1.56 µM
same,TGI,HL-60(TB) leukemia,12.1 µM
same,GI50,BT-549 breast,21.8 µM
same,TGI,BT-549 breast,> 100 µM
same,GI50,T-47D breast,> 100 µM
same,TGI,T-47D breast,> 100 µM
same,GI50,786-0 renal,> 100 µM
same,TGI,786-0 renal,> 100 µM
same,GI50,OVCAR-3 ovarian,> 100 µM
same,TGI,OVCAR-3 ovarian,> 100 µM
